Test results reported in the NIST ThermoML archive (doi:10.1016/j.fluid.2016.08.035).

Tests used:
[1] = xn = mol fraction of the nth substance listed; conditions: 101 kPa, Liquid; for viscosity: Falling or rolling sphere viscometry; for speed of sound: Sing-around technique in a fixed-path interferometer; for mass density: Vibrating tube method
[2] = molar heat capacity at constant pressure; xn = mol fraction of the nth substance listed; conditions: 101 kPa, Liquid, DSC

CC12CCC(CC1)C(C)(C)O2 [1,3,3-trimethyl-2-oxabicyclo[2.2.2]octane] + CCCCCCCCCC
Conditions	mass density, [1] [kg/m3]	molar heat capacity at constant pressure, [2] [J/K/mol]	speed of sound, [1] [m/s]	viscosity, [1] [mPa·s]
278.15 K, x1 = 0.1066	758.86	299.16	1315.5	1.29
278.15 K, x1 = 0.2007	775.04	293.5	1316.6	1.39
278.15 K, x1 = 0.2965	792.05	287.99	1318.2	1.5
278.15 K, x1 = 0.4063	812.26	282.04	1321.2	1.66
278.15 K, x1 = 0.5005	830.26	277.25	1324.7	1.82
278.15 K, x1 = 0.5959	849.15	272.59	1329	2.05
278.15 K, x1 = 0.7007	870.67	267.96	1335	2.39
278.15 K, x1 = 0.7989	891.66	263.81	1341.8	2.86
278.15 K, x1 = 0.8956	913.12	259.87	1349.5	3.41
278.15 K, x1 = 1	937.25	256.14	1359.6	4.21
298.15 K, x1 = 0.1066	743.66	308.32	1235.6	0.93
298.15 K, x1 = 0.2007	759.71	303.12	1237	1
298.15 K, x1 = 0.2965	776.57	298.17	1239.1	1.07
298.15 K, x1 = 0.4063	796.58	292.62	1242.3	1.16
298.15 K, x1 = 0.5005	814.39	288.12	1245.7	1.26
298.15 K, x1 = 0.5959	833.07	283.78	1250	1.41
298.15 K, x1 = 0.7007	854.34	279.2	1255.6	1.61
298.15 K, x1 = 0.7989	875.07	275.24	1261.9	1.86
298.15 K, x1 = 0.8956	896.24	271.44	1269.3	2.16
298.15 K, x1 = 1	920.04	267.69	1278.4	2.6
318.15 K, x1 = 0.1066	728.29	318.26	1157.5	0.71
318.15 K, x1 = 0.2007	744.21	313.35	1159.5	0.75
318.15 K, x1 = 0.2965	760.92	308.63	1162	0.81
318.15 K, x1 = 0.4063	780.75	303.32	1165.5	0.87
318.15 K, x1 = 0.5005	798.4	298.96	1169.1	0.93
318.15 K, x1 = 0.5959	816.88	294.7	1173.4	1.02
318.15 K, x1 = 0.7007	837.92	290.19	1179	1.14
318.15 K, x1 = 0.7989	858.42	286.17	1184.9	1.29
318.15 K, x1 = 0.8956	879.33	282.47	1192.3	1.48
318.15 K, x1 = 1	902.84	278.65	1201	1.73
338.15 K, x1 = 0.1066	712.7	328.92	1081.8	0.58
338.15 K, x1 = 0.2007	728.49	324.19	1083.9	0.6
338.15 K, x1 = 0.2965	745.06	319.65	1087.1	0.64
338.15 K, x1 = 0.4063	764.73	314.6	1091.2	0.69
338.15 K, x1 = 0.5005	782.2	310.38	1094.9	0.73
338.15 K, x1 = 0.5959	800.51	306.21	1099.3	0.79
338.15 K, x1 = 0.7007	821.36	301.78	1105.3	0.88
338.15 K, x1 = 0.7989	841.62	297.82	1111.3	0.98
338.15 K, x1 = 0.8956	862.32	294.23	1118.5	1.1
338.15 K, x1 = 1	885.57	290.33	1126.7	1.27
